The source of these data is ChEMBL document CHEMBL3351731, “Synthesis and cytotoxicity evaluation of 4-amino-4-dehydroxylarctigenin derivatives in glucose-starved A549 tumor cells” (Bioorg Med Chem Lett, 2015).

In experiment [1] the test system is A549. In words: Cytotoxicity against human A549 cells after 4 days under normal conditions by MTT assay. It counts as cell-based. The note with it: A549, 96 h.
The subject of experiment [2] is A549. Description: Cytotoxicity against human A549 cells after 4 days under glucose-starved conditions by MTT assay. It counts as functional, cell-based. The note with it: A549, 96 h. On the technique in general: Formazan colour is commonly taken as a measure of viable cells.

Consider `COc1cc(C[C@H]2C(=O)OC[C@@H]2Cc2ccc(OC)c(OC)c2)ccc1N`, for which the concentration for half-maximal inhibition (IC50) was greater than 50 µM in experiment [1] and 2.85 µM in experiment [2].
For the compound `COc1cc(C[C@H]2C(=O)OC[C@@H]2Cc2ccc(OC)c(OC)c2)ccc1NC(=O)c1ccccc1`, the 50% inhibitory concentration (IC50) in experiment [1] and in experiment [2] was greater than 50 µM throughout.
With `COc1cc(C[C@H]2C(=O)OC[C@@H]2Cc2ccc(OC)c(OC)c2)ccc1NC(=O)Cc1ccccc1`, the half-maximal inhibitory concentration (IC50) in experiment [1] and in experiment [2] was greater than 50 µM in each case.
On to `COc1cc(C[C@H]2C(=O)OC[C@@H]2Cc2ccc(OC)c(OC)c2)ccc1NC(C)=O`, for which the IC50 in experiment [1] and in experiment [2] was greater than 50 µM each time.
For the compound `CCC(=O)Nc1ccc(C[C@H]2C(=O)OC[C@@H]2Cc2ccc(OC)c(OC)c2)cc1OC`, the IC50 in experiment [1] and in experiment [2] was greater than 50 µM throughout.
With `COc1cc(C[C@H]2C(=O)OC[C@@H]2Cc2ccc(OC)c(OC)c2)ccc1Nc1ccccc1`, the IC50 in experiment [1] and in experiment [2] was greater than 50 µM throughout.
As for `COc1ccc(Nc2ccc(C[C@H]3C(=O)OC[C@@H]3Cc3ccc(OC)c(OC)c3)cc2OC)cc1`, the IC50 in experiment [1] and in experiment [2] was greater than 50 µM throughout.
In the case of `COc1cc(C[C@H]2C(=O)OC[C@@H]2Cc2ccc(OC)c(OC)c2)ccc1Nc1ccc([N+](=O)[O-])cc1`, the IC50 is greater than 50 µM in experiment [1] and 22.1 µM in experiment [2].
On to `COc1cc(C[C@H]2C(=O)OC[C@@H]2Cc2ccc(OC)c(OC)c2)ccc1Nc1ccc(F)cc1`, for which the IC50 in experiment [1] and in experiment [2] was greater than 50 µM in each case.
On to `COc1cc(C[C@H]2C(=O)OC[C@@H]2Cc2ccc(OC)c(OC)c2)ccc1NCc1ccccc1`, for which the IC50 in experiment [1] and in experiment [2] was greater than 50 µM each time.
Take `COc1cccc(C[C@H]2C(=O)OC[C@@H]2Cc2ccc(OC)c(OC)c2)c1`: the IC50 in experiment [1] and in experiment [2] was greater than 50 µM in each case.
Consider `COc1cc(C[C@H]2C(=O)OC[C@@H]2Cc2ccc(OC)c(OC)c2)ccc1O` [ARCTIGENIN], for which the IC50 is greater than 50 µM in experiment [1] and 6.57 µM in experiment [2].

As a reminder, the IC50 is the concentration needed to halve the response being measured. High values mean weaker potency, low ones greater potency.
